From patent US20110034378A1, “Pharmaceutical Combinations Comprising Specified Age Breaker and Further Drugs, I.A. Antihypertensive Drugs, Antidiabetic Drugs Etc” (priority 2008, published 2011) come the findings set out here.

This test has as its system obese Zucker spontaneously hypertensive fatty rats (Ob-ZSF1). In words: Effect of compound 27 on diabetic cardiomyopathy and nephropathy in Ob-ZSF1 rats. Type of test: in vivo, rat. As to the method:
Aim: The aim of this study was to study the effect of compound 27 on diabetic cardiomyopathy and nephropathy in obese Zucker spontaneously hypertensive fatty rats (Ob-ZSF1), an animal model of diabetes with progressive cardiac and renal dysfunction.
Method: Male Ob-ZSF1 rats were implanted with telemetry transmitters. At the age of 3 months, rats were divided into two treatment groups, compound 27, 9 mg/kg ip bid and 27 mg/kg ip, bid and a control group to which vehicle was administered until study termination at 34 weeks. 0.5% salt was added in drinking water from […] of treatment for 6 weeks in order to accelerate the vasculopathy. At fixed predetermined time intervals, blood pressure, urine albumin and creatinine were monitored during the study. Terminal measurement of cardiac function was performed in the same animals using Millar Pressure Volume (P-V) System. PV loops were captured to establish cardiac functional parameters and differences in end systolic pressure volume relationship (ESPVR) and end diastolic pressure volume relationship (EDPVR) at different preloads. Heart and kidney were collected from same set of animals at termination for gross and microscopic histopathological examination and for gene expression studies.

[1] abbreviates: 9 and 27 mg/kg ip bid, terminal Millar P-V measurement, vs vehicle control.
Where [2] appears, read: longitudinally over time, compared to control.
[3] abbreviates: persistent severe hyperglycemia.

Molecules are shown by their SMILES.

With `CS(=O)(=O)NNC(=O)c1ccc[n+](CC(=O)c2cccs2)c1.[Cl-]` [compound 27, 1-(2-thien-2′-yl-2-oxoethyl)-3-(methanesulfonyl hydrazinocarbonyl)pyridinium chloride], the “Relative heart wet weight” value (27 mg/kg group) is listed as “significantly lesser”. Besides, the “damage to cardiomyocytes, microscopic examination” value (27 mg/kg group, compared to the control group) is “less severe damage”. The cardiac output result (9 and 27 mg/kg ip bid, terminal Millar P-V measurement at 34 weeks, vs vehicle control) is “significant improvement”. For the same compound, under setting [1], the diastolic relaxation entry is on record as “more efficient”, the systolic contractile function result is recorded as “better” and the ventricular compliance entry was “improved”. Further, the “peripheral resistance (afterload)” value (9 and 27 mg/kg ip bid, vs vehicle control) is reported as “significant reduction”. In addition, the “renal pathology observed microscopically” value (compared to control) was “less severe”. In addition, the “Inflammatory cytokine Interleukin-6 (IL-6)” value (compound 27 treated groups) is “reduced significantly”. For the same compound, the Renal function result (higher dose group, compared to control) is on record as “distinct improvement”. In addition, under setting [2], the “Percent increase from baseline for albumin to creatinine ratio” value is “significantly reduced”, the “Percent increase from baseline for serial creatinine excretion” value is “significantly reduced” and the “Percent increase from baseline for urinary albumin excretion” value is recorded as “significantly reduced”. Besides, where the note is “marker of cardiac failure, compared to control animals”, the “Brain natriuretic peptide (BNP) expression” value is recorded as “reduced”. In addition, under setting [3], the “cardiac function (conclusion)” value is “clearly preserved” and the “renal dysfunction (conclusion)” value was “reduced the severity”. The BP result (telemetry, compound 27 treated animals) was “reduction”.
